Assays:
HepG2 cells = test: Hepatoprotective effect against acetaminophen-induced hepatotoxicity in HepG2 cells (MTT); format: cell-based, Human; settings: for viability at 50 µM: Homo sapiens, HepG2, 50 μM compound, pretreated 8 h, 6 mM APAP for 36 h, MTT, read-out: cell viability (cytoprotection against APAP)
Description: Human hepatocellular carcinoma HepG2 cells were obtained from the Bioresource Collection and Research Center (BCRC, Hsinchu, Taiwan). Cells culture was conducted with a complete medium consisting of DMEM (Dulbecco's Modified Eagle Medium, Gibco), 10% (v/v) fetal bovine serum (FBS) (Gibco), and 1% (v/v) antibiotic -antimycotic […] (Gibco, 15240062). Upon reaching at 80% confluence, cells were rinsed with PBS and detached using trypsin -EDTA (Gibco, 25200072) at 37 °C for 5 minutes. Subsequently, cells were seeded into specialized 96 -well plates (3 × 10^4/well, 100 µL/well) and incubated for 24 hours at 37 °C with 5% CO2. […]
control cells were used as a reference under the same conditions. The maximum absorbance value depended on the solvent used in the sample solution, and the percentage viability of cells was determined using the formula: […]. […]
3.9.2. Assess hepatoprotective effects of compounds […]
using an acetaminophen-induced hepatotoxicity HepG2 model. Cells were initially seeded in 96 -well plates at a density of 3 × 10^4 cells/well and then incubated under identical conditions with 5% CO 2 for 24 hours. Following this, cells were exposed to the test samples. After 8 hours, hepatotoxicity was induced using acetaminophen (Sigma Aldrich, A7085) at a concentration of 6 mM. The protective effects were assessed by determining cell viability using the MTT method 36 hours post - acetaminophen induc tion. Silymarin (at concentration of 50 μg/mL) was used as positive control. […]

DPP-IV = biological target: T1, DPP-IV (Homo sapiens, UniProt P27487); test: DPP-IV inhibition activity (DPP-IV Activity Assay Kit, AMC fluorescence); format: biochemical; settings: for IC50: pure compounds; for DPP-IV inhibition (in words): summary
T1 construct: purchased BioVision K779-100
Description: 2.7. DPP-IV inhibition activity
A commercially available DPP -IV Activity Assay Kit (K779 -100, BioVision) was employed to evaluate DPP-IV activity. The procedures were conducted according to the manufacturer’s instructions. DPP-IV enzymatically cleaves substrates, leading to the release o f the quenched fluorescent group AMC (7 -Amino-4-Methyl Coumarin). AMC detection was measured with a fluorescence reader at Ex/Em = 360/460 nm. […]

T1 sequence (P27487 whole entry, species assumed): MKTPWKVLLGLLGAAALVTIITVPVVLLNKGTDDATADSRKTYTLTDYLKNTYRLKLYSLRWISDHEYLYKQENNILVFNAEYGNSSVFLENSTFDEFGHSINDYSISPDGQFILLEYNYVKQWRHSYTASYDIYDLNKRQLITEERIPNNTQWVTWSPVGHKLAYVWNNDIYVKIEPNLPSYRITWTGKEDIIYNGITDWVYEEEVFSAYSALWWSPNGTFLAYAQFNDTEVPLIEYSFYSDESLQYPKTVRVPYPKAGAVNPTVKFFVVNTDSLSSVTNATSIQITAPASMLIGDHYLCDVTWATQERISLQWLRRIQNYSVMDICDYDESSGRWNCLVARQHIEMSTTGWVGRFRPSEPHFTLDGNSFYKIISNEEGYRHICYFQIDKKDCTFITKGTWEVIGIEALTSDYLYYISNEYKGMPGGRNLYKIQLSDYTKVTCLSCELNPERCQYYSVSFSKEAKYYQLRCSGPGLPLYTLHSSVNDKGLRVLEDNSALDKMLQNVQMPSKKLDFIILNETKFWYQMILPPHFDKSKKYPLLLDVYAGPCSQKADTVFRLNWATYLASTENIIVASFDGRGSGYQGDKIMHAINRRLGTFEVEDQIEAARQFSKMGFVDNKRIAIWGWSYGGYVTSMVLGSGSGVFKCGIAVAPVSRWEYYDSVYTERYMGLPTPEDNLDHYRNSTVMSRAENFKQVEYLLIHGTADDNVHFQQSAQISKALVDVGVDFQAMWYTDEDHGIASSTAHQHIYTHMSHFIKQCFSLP

Row | Compound | hepatoprotective effect in acetaminophen-induced hepatotoxicity in HepG2 (in words) (HepG2 cells) | viability at 50 µM (HepG2 cells) [%] | inhibition at 400 µM (DPP-IV) [%] | inhibition at 150 µM (DPP-IV) [%] | IC50 (DPP-IV) [µM] | DPP-IV inhibition (in words) (DPP-IV)
1 | COc1cc2c(cc1O[C@@H]1O[C@H](CO)[C@@H](O)[C@H](O)[C@H]1O)[C@@]1(O)C(=O)C[C@H](O)C[C@@H]1CC2 [Compound 1, elatostemanoside A] | significant hepatoprotective effects | 85.6 | > 50 | – | – | –
2 | COc1cc2c(cc1O[C@@H]1O[C@H](CO)[C@@H](O)[C@H](O)[C@H]1O)[C@@]1(O)C(=O)C[C@@H](O)C[C@@H]1CC2 [Compound 2, elatostemanoside B] | – | – | > 50 | – | – | –
3 | COc1cc2c(cc1O[C@@H]1O[C@H](CO)[C@@H](O)[C@H](O)[C@H]1O)[C@@]1(O)C(=O)C[C@H](O)C[C@H]1CC2 [Compound 5, elatostemanoside E] | – | – | > 50 | ≥ 50 | 142 ± 15.6 | weak effects
4 | COc1cc2c(cc1O[C@@H]1O[C@H](CO)[C@@H](O)[C@H](O)[C@H]1O)[C@@]1(O)C(=O)C[C@@H](O)C[C@H]1CC2 [Compound 6, elatostemanoside F] | – | – | > 50 | ≥ 50 | 151 ± 11.8 | weak effects
5 | COc1cc2c(cc1O[C@@H]1O[C@H](CO)[C@@H](O)[C@H](O)[C@H]1O)[C@@]1(O)C(=O)[C@@H](O)[C@H](O)C[C@H]1CC2 [Compound 8, elatostemanoside H] | – | – | > 50 | ≥ 50 | 108 ± 19.6 | weak effects
6 | COc1cc2c(cc1O[C@@H]1O[C@H](CO)[C@@H](O)[C@H](O)[C@H]1O)[C@@]1(O)C(=O)C=CC[C@@H]1CC2 [Compound 9, elatostemanoside I] | significant hepatoprotective effects | 82.6 | – | – | – | –
7 | COc1cc2c(cc1O[C@@H]1O[C@H](CO)[C@@H](O)[C@H](O)[C@H]1O)[C@@]1(OC)C(=O)C=CC[C@@H]1CC2 [Compound 10, elatostemanoside J] | – | – | > 50 | – | – | –
8 | COc1cc2c(cc1O[C@@H]1O[C@H](CO)[C@@H](O)[C@H](O)[C@H]1O)[C@@]1(O)C(=O)C=CC[C@H]1CC2 [Compound 11, elatostemanoside K] | significant hepatoprotective effects | 81.6 | – | – | – | –
9 | OC[C@H]1O[C@@H](Oc2cc3c(cc2O)CCc2cccc(O)c2-3)[C@H](O)[C@@H](O)[C@@H]1O [Compound 14, 7,4-dihydroxy-9,10-dihydrophenanthrene 6-O-β-D-glucopyranoside] | significant hepatoprotective effects | 78.8 | > 50 | ≥ 50 | 71.9 ± 8.9 | moderate inhibition
10 | COc1cc2c(cc1O[C@@H]1O[C@H](CO[C@@H]3O[C@@H](C)[C@H](O)[C@@H](O)[C@H]3O)[C@@H](O)[C@H](O)[C@H]1O)-c1c(O)cccc1CC2 [Compound 15, elatostemanoside O] | – | – | > 50 | – | – | –
11 | COc1cc2c(cc1OC1OC(CO)C(O)C(O)C1O)C1(O)C(=O)CC(C3=CCC4CCc5cc(OC)c(OC6OC(CO)C(O)C(O)C6O)cc5C4(O)C3=O)CC1CC2 (centres unmarked) [Compound 16, elatostemanoside P] | – | – | > 50 | – | – | –

Source: publication PMC11741115, “New Hydrogenated Phenanthrene Glycosides from the Edible Vegetable Elatostema tenuicaudatum W.T.Wang with DPP-IV Inhibitory and Hepatoprotective Activity” (Journal of Agricultural and Food Chemistry, 2025)
